ChEMBL document CHEMBL5608170, “An insight into sustainable and green chemistry approaches for the synthesis of quinoline derivatives as anticancer agents” (Eur J Med Chem, 2024)
≈ marks a conversion by molar mass, not a printed value.

Key:
NCI-H460 = assay: Antiproliferative activity against human NCI-H460 cells assessed as reduction in cell viability by MTT assay; type: functional, cell-based
A549 [1] = assay: Antiproliferative activity against human A549 cells assessed as reduction in cell viability by MTT assay; type: functional, cell-based
MDA-MB-231 [2] = assay: Cytotoxicity against human MDA-MB-231 cells assessed as reduction in cell viability incubated for 48 hrs by MTT assay; type: functional, cell-based; conditions: MDA-MB-231, 48 h
MCF7 = assay: Cytotoxicity against human MCF7 cells assessed as reduction in cell viability incubated for 24 hrs by MTT assay; type: functional, cell-based; conditions: MCF7, 24 h
HepG2 = assay: Cytotoxicity against human HepG2 cells assessed as reduction in cell viability incubated for 24 hrs by MTT assay; type: functional, cell-based; conditions: HepG2, 24 h
UO-31 = assay: Growth inhibition of human UO-31 cells at 10 uM by SRB assay relative to control; type: functional; conditions: read-out: GI
HOP-92 = assay: Growth inhibition of human HOP-92 cells at 10 uM by SRB assay relative to control; type: functional; conditions: read-out: GI
CAKI-1 = assay: Growth inhibition of human CAKI-1 cells at 10 uM by SRB assay relative to control; type: functional; conditions: read-out: GI
TK-10 = assay: Growth inhibition of human TK-10 cells at 10 uM by SRB assay relative to control; type: functional; conditions: read-out: GI
Hs-578T = assay: Growth inhibition of human Hs-578T cells at 10 uM by SRB assay relative to control; type: functional; conditions: read-out: GI
K562 = assay: Growth inhibition of human K562 cells at 10 uM incubated for 24 hrs by MTT assay; type: functional; conditions: read-out: GI
HBL-100 = assay: Growth inhibition of human HBL-100 cells; type: functional
HCT-116 = assay: Cytotoxicity against human HCT-116 cells assessed as reduction in cell viability incubated for 24 hrs by MTT assay; type: functional, cell-based; conditions: HCT-116, 24 h
A549 [3] = assay: Cytotoxicity against human A549 cells assessed as reduction in cell viability incubated for 24 hrs by MTT assay; type: functional, cell-based; conditions: A549, 24 h
MDA-MB-231 [4] = assay: Cytotoxicity against human MDA-MB-231 cells assessed as reduction in cell growth measured for 48 hrs by MTT assay; type: functional, cell-based; conditions: MDA-MB-231, 48 h
T47D = assay: Growth inhibition of human T47D cells; type: functional
WiDr = assay: Growth inhibition of human WiDr cells; type: functional
HeLa [5] = assay: Growth inhibition of human HeLa cells; type: functional
SW1573 = assay: Growth inhibition of human SW1573 cells; type: functional
A549 [6] = assay: Growth inhibition of human A549 cells; type: functional
DU-145 = assay: Cytotoxicity against human DU-145 cells assessed as reduction in cell growth measured for 48 hrs by MTT assay; type: functional, cell-based; conditions: DU-145, 48 h
PC-3 = assay: Cytotoxicity against human PC-3 cells assessed as reduction in cell growth measured for 48 hrs by MTT assay; type: functional, cell-based; conditions: PC-3, 48 h
B16-F10 = assay: Cytotoxicity against mouse B16-F10 cells assessed as reduction in cell viability incubated for 48 hrs by MTT assay; type: functional, cell-based; conditions: B16-F10, 48 h
HeLa [7] = assay: Growth inhibition of human HeLa cells by SRB assay; type: functional
HOP-62 = assay: Growth inhibition of human HOP-62 cells at 10 uM by SRB assay relative to control; type: functional; conditions: read-out: GI
A498 = assay: Growth inhibition of human A498 cells at 10 uM by SRB assay relative to control; type: functional; conditions: read-out: GI
CCRF-CEM = assay: Growth inhibition of human CCRF-CEM cells at 10 uM by SRB assay relative to control; type: functional; conditions: read-out: GI
A549 [8] = assay: Cytotoxicity against human A549 cells assessed as reduction in cell viability incubated for 72 hrs by MTT assay; type: functional, cell-based; conditions: A549, 72 h
HT-29 = assay: Cytotoxicity against human HT-29 cells assessed as reduction in cell viability incubated for 72 hrs by MTT assay; type: functional, cell-based; conditions: HT-29, 72 h

Which results are given for `COc1ccc(Nc2nc3ccccc3c(Nc3ccc(OC)cc3)c2[N+](=O)[O-])cc1`?
IC50 (NCI-H460): 7.1 µM; IC50 (A549 [1]): 11.2 µM

Which IC50 (MDA-MB-231 [2]) does the source give for `COc1ncccc1-c1cc(-c2cn(Cc3ccccc3F)nn2)cc2ccc(C)nc12` here?
Its IC50 is 19.8 µM.

Which results are given for `Cc1ccc2ccc3c(c2n1)OC(N)=C(C#N)C3c1cccc(Cl)c1Cl` (centres undefined)?
IC50 (MCF7): 1.24 µg/mL (≈ 3.24 µM); IC50 (HepG2): 1.83 µg/mL (≈ 4.79 µM)

With `COc1ncc(-c2cc(-c3cn(Cc4ccccc4F)nn3)cc3ccc(C)nc23)cc1F` as the compound, how does the IC50 (MDA-MB-231 [2]) read?
The IC50 was 20.6 µM.

What does the source list for `Cc1cc(=O)n(C(=O)Nc2ccccc2)c2cc(O)ccc12`?
inhibition of growth at 10 µM (UO-31): 23.1%; inhibition of growth at 10 µM (HOP-92): 16%; inhibition of growth at 10 µM (CAKI-1): 12.4%; inhibition of growth at 10 µM (TK-10): 82.9%; inhibition of growth at 10 µM (Hs-578T): 11.5%

For `COc1ccc(-c2cn3c4c(cccc24)CCC3)cc1`, which inhibition of growth at 10 µM (K562) is on record?
Its inhibition of growth at 10 µM is 66%.

With `CCOc1cc2ncc(C#N)c(Nc3ccc(OCc4ccccn4)c(Cl)c3)c2cc1NC(=O)/C=C/CN(C)C` [NERATINIB] as the compound, how does the GI50 (HBL-100) read?
The GI50 was 1.6 µM.

Which results are given for `N#CC1=C(N)Oc2c(cc(Cl)c3cccnc23)C1c1cccc(Cl)c1Cl` (centres undefined)?
IC50 (HCT-116): 7.94 µg/mL (≈ 19.7 µM); IC50 (MCF7): 2.47 µg/mL (≈ 6.13 µM); IC50 (A549 [3]): 15.6 µg/mL (≈ 38.7 µM); IC50 (HepG2): 1.48 µg/mL (≈ 3.68 µM)

`O=C1N(c2ccc([N+](=O)[O-])cc2[N+](=O)[O-])c2[nH]c(=O)[nH]c(=O)c2C12c1ccccc1Nc1c2[nH]c(=O)[nH]c1=O` (centres undefined) was tested. Which IC50 (MDA-MB-231 [4]) did it give?
Its IC50 is 10.6 µM.

How did the IC50 (HCT-116) turn out when `N#CC1=C(N)Oc2c(cc(Cl)c3cccnc23)C1c1cccc(Cl)c1` (centres undefined) was run?
The IC50 was 3.04 µg/mL (≈ 8.26 µM).

What about the IC50 (MCF7) of the same compound?
The IC50 was 0.9 µg/mL (≈ 2.44 µM).

And the IC50 (A549 [3])?
The IC50 was 2.67 µg/mL (≈ 7.25 µM).

What about the IC50 (HepG2) of the same compound?
Its IC50 is 0.7 µg/mL (≈ 1.9 µM).

With `CCOc1cc2ncc(C#N)c(Nc3ccc(F)c(Cl)c3)c2cc1NC(=O)/C=C/CN(C)C` [PELITINIB] as the compound, how does the GI50 (HBL-100) read?
The GI50 was 19 µM.

What about the GI50 (T47D) of the same compound?
The GI50 was 16 µM.

And the GI50 (WiDr)?
Its GI50 is 12 µM.

What about the GI50 (HeLa [5]) of the same compound?
The GI50 was 8.3 µM.

And the GI50 (SW1573)?
The GI50 was 20 µM.

What about the GI50 (A549 [6]) of the same compound?
The GI50 was 7.7 µM.

What does the source list for `O=C1N(c2cccnc2)c2[nH]c(=O)[nH]c(=O)c2C12c1ccccc1Nc1c2[nH]c(=O)[nH]c1=O` (centres undefined)?
IC50 (DU-145): 15 µM; IC50 (PC-3): 15.4 µM; IC50 (MDA-MB-231 [4]): 7.97 µM

How did the IC50 (B16-F10) turn out when `CNC(=O)c1cccc2cc(Oc3ccnc4cc(OCC5(N)CC5)c(OC)cc34)ccc12` [LUCITANIB] was run?
The IC50 was 16.3 µM.

For `N#CC1=C(N)Oc2c(cc(Cl)c3cccnc23)C1c1ccc(Cl)cc1Cl` (centres undefined), which IC50 (HCT-116) is on record?
Its IC50 is 3.01 µg/mL (≈ 7.48 µM).

What about the IC50 (MCF7) of the same compound?
Its IC50 is 1.18 µg/mL (≈ 2.93 µM).

And the IC50 (A549 [3])?
Its IC50 is 1.79 µg/mL (≈ 4.45 µM).

And the IC50 (HepG2)?
The IC50 was 0.87 µg/mL (≈ 2.16 µM).

How did the IC50 (HCT-116) turn out when `N#CC1=C(N)Oc2c(ccc3cccnc23)C1c1ccc(Br)cc1` (centres undefined) was run?
The IC50 was 1.3 µg/mL (≈ 3.44 µM).

And the IC50 (MCF7)?
The IC50 was 1.17 µg/mL (≈ 3.09 µM).

What about the IC50 (A549 [3]) of the same compound?
Its IC50 is 38 µg/mL (≈ 100 µM).

And the IC50 (HepG2)?
Its IC50 is 1.41 µg/mL (≈ 3.73 µM).

With `CC(=O)NC1=NN(C(C)=O)C(c2cc3cc(Br)ccc3n3nnnc23)S1` (centres undefined) as the compound, how does the GI50 (HeLa [7]) read?
The GI50 was less than 0.1 µM.

Which results are given for `O=C1N(c2ccccc2S)c2[nH]c(=O)[nH]c(=O)c2C12c1ccccc1Nc1c2[nH]c(=O)[nH]c1=O` (centres undefined)?
IC50 (DU-145): 17.7 µM; IC50 (PC-3): 18.4 µM

Which inhibition of growth at 10 µM (UO-31) does the source give for `Cc1cc(=O)n(C(=O)Nc2ccc(F)c(Cl)c2)c2cc(O)ccc12` here?
Its inhibition of growth at 10 µM is 30%.

And the inhibition of growth at 10 µM (HOP-62)?
Its inhibition of growth at 10 µM is 17.6%.

And the inhibition of growth at 10 µM (HOP-92)?
Its inhibition of growth at 10 µM is 27.4%.

What about the inhibition of growth at 10 µM (A498) of the same compound?
Its inhibition of growth at 10 µM is 20.5%.

What about the inhibition of growth at 10 µM (CCRF-CEM) of the same compound?
Its inhibition of growth at 10 µM is 58.6%.

How did the IC50 (HCT-116) turn out when `N#CC1=C(N)Oc2c(ccc3cccnc23)C1c1cccc(Cl)c1` (centres undefined) was run?
The IC50 was 1.35 µg/mL (≈ 4.04 µM).

What about the IC50 (MCF7) of the same compound?
Its IC50 is 1.42 µg/mL (≈ 4.25 µM).

And the IC50 (A549 [3])?
Its IC50 is 1.23 µg/mL (≈ 3.69 µM).

What about the IC50 (HepG2) of the same compound?
Its IC50 is 1.87 µg/mL (≈ 5.6 µM).

For `COc1cc(/C=C2\OCc3nc4ccccc4c(-c4ccccc4)c3C2=O)cc(OC)c1OC`, which IC50 (A549 [8]) is on record?
Its IC50 is 4.82 µg/mL (≈ 10.6 µM).

And the IC50 (HT-29)?
The IC50 was 7.69 µg/mL (≈ 17 µM).
